In brackets after ≈: the same amount, converted by molar mass.
Legend:
Tetrahymena pyriformis W = test: Antiprotozoal activity: growth inhibition by serial dilution method; format: cell-based; conditions: 28° C., 44 to 48 hours, pH 7.0 medium
Experimental: Antiprotozoal activity of compound (I) was assayed with Tetrahymena pyriformis W as the test organism and a medium composed of 20 g tryptose-peptone (Difco Co.), 1 g yeast extract, 2 g glucose, 1000 ml distilled water, 10 ml 1 M phosphate buffer (pH 7.0) as the assay medium. The microorganism was incubated at 28° C. for 44 to 48 hours and the growth inhibitory activity of compound (I) was assayed by the serial dilution method.

[1] = test system: melanoma B-16 tumor cells; test: Antitumor activity: life span prolongation in mice intraperitoneally transplanted with melanoma B-16 (NCI-protocol 1,300); format: in vivo; conditions: intraperitoneally once daily for 9 consecutive days
Experimental: Therapeutic tests were carried out in mice according to NCI-protocol 1,300, Cancer Chemother, Reports, Part 3, 1972, Vol. 3, No. 2, in which melanoma B-16 tumor cells had been intraperitoneally transplanted, compound (I) being administered intraperitoneally once daily for 9 consecutive days.

SMILES	MIC (Tetrahymena pyriformis W)	Antitumor activities B-16 (T/C %) ([1]; dose 3.125 μg/kg)	Antitumor activities B-16 (T/C %) ([1]; dose 6.25 μg/kg)	Antitumor activities B-16 (T/C %) ([1]; dose 12.5 μg/kg)	Antitumor activities B-16 (T/C %) ([1]; dose 100 μg/kg)	Antitumor activities B-16 (T/C %) ([1]; dose 200 μg/kg)	Antitumor activities B-16 (T/C %) ([1]; dose 400 μg/kg)	Antitumor activities B-16 (T/C %) ([1]; dose 800 μg/kg)
COc1cc2cc(c1Cl)N(C)C(=O)CC(OC(=O)C(COC(C)=O)c1ccccc1)C1(C)OC1C(C)C1CC(O)(NC(=O)O1)C(OC)C=CC=C(C)C2 (stereo not drawn) [maytansinol 3-α-acetoxymethylphenylacetate]	1 to 2 µg/mL (≈ 1.32 to 2.65 µM)	–	–	–	–	–	–	–
COc1cc2cc(c1Cl)N(C)C(=O)CC(OC(=O)C(OC(C)=O)c1ccccc1)C1(C)OC1C(C)C1CC(O)(NC(=O)O1)C(OC)C=CC=C(C)C2 (stereo not drawn) [Maytansinol 3-α-acetoxyphenylacetate, maytansinol 3-(α-acetoxyphenyl)acetate]	< 2 µg/mL	181%	260%	161%	–	–	–	–
COc1cc2cc(c1Cl)N(C)C(=O)CC(OC(=O)C(O)c1ccccc1)C1(C)OC1C(C)C1CC(O)(NC(=O)O1)C(OC)C=CC=C(C)C2 (single isomer, unassigned) [maytansinol 3-α-hydroxyphenylacetate]	–	–	–	–	178%	208%	247%	217%
